Data taken from patent publication US20240018145A1, “[…]-DEPENDENT EN[…] TREATING OR […]” (priority 2020, published 2024).

Tested on: FLU A (PR/8/34)
Experiment: Flu A Neuraminidase Antiviral Assay
Type: cell-based

First: CC1CC2N(C)C(=O)c3c(O)c(=O)ccn3N2C(C)(c2ccccc2)C1 (single isomer, unassigned) [Compound 43B, 7-hydroxy-1,3,5-trimethyl-1-phenyl-1,2,3,4,4a,5-hexahydrodipyrido[1,2-b:2′,1′-f][1,2,4]triazine-6,8-dione]
Second: CC1(c2ccccc2)CCCC2N(CC3CC(F)(F)C3)C(=O)c3c(O)c(=O)ccn3N21 (single isomer, unassigned) [Compound 45A, 5-((3,3-difluorocyclobutyl)methyl)-7-hydroxy-1-methyl-1-phenyl-1,2,3,4,4a,5-hexahydrodipyrido[1,2-b:2′,1′-f][1,2,4]triazine-6,8-dione]
The EC50 of the first is lower: 1100 nM for the first, over 8100 nM for the second.

`CC1CC2N(C)C(=O)c3c(O)c(=O)ccn3N2C(C)(c2ccccc2)C1` (single isomer, unassigned) [Compound 43C, 7-hydroxy-1,3,5-trimethyl-1-phenyl-1,2,3,4,4a,5-hexahydrodipyrido[1,2-b:2′,1′-f][1,2,4]triazine-6,8-dione] and `CC1(c2ccccc2)CCCC2N(CC3CC(F)(F)C3)C(=O)c3c(O)c(=O)ccn3N21` (single isomer, unassigned) [Compound 45B, 5-((3,3-difluorocyclobutyl)methyl)-7-hydroxy-1-methyl-1-phenyl-1,2,3,4,4a,5-hexahydrodipyrido[1,2-b:2′,1′-f][1,2,4]triazine-6,8-dione] are within 1.5-fold of each other in EC50: 14.1 nM for the first, 10.6 nM for the second.

Compared with `CC1CC2N(C)C(=O)c3c(O)c(=O)ccn3N2C(C)(c2ccccc2)C1` (single isomer, unassigned) [Compound 43D, 7-hydroxy-1,3,5-trimethyl-1-phenyl-1,2,3,4,4a,5-hexahydrodipyrido[1,2-b:2′,1′-f][1,2,4]triazine-6,8-dione], `CN1C(=O)c2c(O)c(=O)ccn2N2C1CCCC2(C)c1cccc(OC(F)F)c1` (single isomer, unassigned) [Compound 51A, 1-(3-(difluoromethoxy)phenyl)-7-hydroxy-1,5-dimethyl-1,2,3,4,4a,5-hexahydrodipyrido[1,2-b:2′,1′-f][1,2,4]triazine-6,8-dione] is higher in EC50: 7.8 nM for the first, over 8100 nM for the second.

`Cc1cccnc1C1(C)CCCC2N(CC(F)(F)F)C(=O)c3c(O)c(=O)ccn3N21` (single isomer, unassigned) [Compound 44A, 7-hydroxy-1-methyl-1-(3-methylpyridin-2-yl)-5-(2,2,2-trifluoroethyl)-1,2,3,4,4a,5-hexahydrodipyrido[1,2-b:2′,1′-f][1,2,4]triazine-6,8-dione] and `Cc1ccnc(C2(C)CCCC3N(CC(F)(F)F)C(=O)c4c(O)c(=O)ccn4N32)c1` (single isomer, unassigned) [Compound 50A, 7-hydroxy-1-methyl-1-(4-methylpyridin-2-yl)-5-(2,2,2-trifluoroethyl)-1,2,3,4,4a,5-hexahydrodipyrido[1,2-b:2′,1′-f][1,2,4]triazine-6,8-dione] cannot be ordered by EC50: over 8100 nM for the first, over 8100 nM for the second.

Compared with `Cc1cccnc1C1(C)CCCC2N(CC(F)(F)F)C(=O)c3c(O)c(=O)ccn3N21` (single isomer, unassigned) [Compound 44B, 7-hydroxy-1-methyl-1-(3-methylpyridin-2-yl)-5-(2,2,2-trifluoroethyl)-1,2,3,4,4a,5-hexahydrodipyrido[1,2-b:2′,1′-f][1,2,4]triazine-6,8-dione], `Cc1ccnc(C2(C)CCCC3N(CC(F)(F)F)C(=O)c4c(O)c(=O)ccn4N32)c1` (single isomer, unassigned) [Compound 50B, 7-hydroxy-1-methyl-1-(4-methylpyridin-2-yl)-5-(2,2,2-trifluoroethyl)-1,2,3,4,4a,5-hexahydrodipyrido[1,2-b:2′,1′-f][1,2,4]triazine-6,8-dione] is 1.7-fold lower in EC50: 15.2 nM for the first, 9 nM for the second.

Going from `CN1C(=O)c2c(O)c(=O)ccn2N2C1CCCC2(C)c1ncc(F)cc1F` (single isomer, unassigned) [Compound 46A, 1-(3,5-difluoropyridin-2-yl)-7-hydroxy-1,5-dimethyl-1,2,3,4,4a,5-hexahydrodipyrido[1,2-b:2′,1′-f][1,2,4]triazine-6,8-dione] to `CC1(c2ncc(F)cc2F)CCCC2N(CC(F)F)C(=O)c3c(O)c(=O)ccn3N21` (single isomer, unassigned) [Compound 47A, 5-(2,2-difluoroethyl)-1-(3,5-difluoropyridin-2-yl)-7-hydroxy-1-methyl-1,2,3,4,4a,5-hexahydrodipyrido[1,2-b:2′,1′-f][1,2,4]triazine-6,8-dione], the EC50 falls from 40.3 nM to 25.7 nM (1.6-fold). The second is the more potent here.

Compared with `CN1C(=O)c2c(O)c(=O)ccn2N2C1CCCC2(C)c1ncc(F)cc1F` (single isomer, unassigned) [Compound 46B, 1-(3,5-difluoropyridin-2-yl)-7-hydroxy-1,5-dimethyl-1,2,3,4,4a,5-hexahydrodipyrido[1,2-b:2′,1′-f][1,2,4]triazine-6,8-dione], `CC1(c2ncc(F)cc2F)CCCC2N(CC(F)F)C(=O)c3c(O)c(=O)ccn3N21` (single isomer, unassigned) [Compound 47B, 5-(2,2-difluoroethyl)-1-(3,5-difluoropyridin-2-yl)-7-hydroxy-1-methyl-1,2,3,4,4a,5-hexahydrodipyrido[1,2-b:2′,1′-f][1,2,4]triazine-6,8-dione] is lower in EC50: over 8100 nM for the first, 4380 nM for the second. The second is the more potent here.

First: Cc1ccc(C2(C)CCCC3N(CC(F)(F)F)C(=O)c4c(O)c(=O)ccn4N32)nc1 (single isomer, unassigned) [Compound 49A, 7-hydroxy-1-methyl-1-(5-methylpyridin-2-yl)-5-(2,2,2-trifluoroethyl)-1,2,3,4,4a,5-hexahydrodipyrido[1,2-b:2′,1′-f][1,2,4]triazine-6,8-dione]
Second: CC1(c2cc(C(F)(F)F)ccn2)CCCC2N(CC3(C(F)(F)F)CC3)C(=O)c3c(O)c(=O)ccn3N21 (single isomer, unassigned) [Compound 52A, 7-hydroxy-1-methyl-5-((1-(trifluoromethyl)cyclopropyl)methyl)-1-(4-(trifluoromethyl)pyridin-2-yl)-1,2,3,4,4a,5-hexahydrodipyrido[1,2-b:2′,1′-f][1,2,4]triazine-6,8-dione]
The EC50 of the first is higher: over 8100 nM for the first, 114 nM for the second.

First: Cc1ccc(C2(C)CCCC3N(CC(F)(F)F)C(=O)c4c(O)c(=O)ccn4N32)nc1 (single isomer, unassigned) [Compound 49B, 7-hydroxy-1-methyl-1-(5-methylpyridin-2-yl)-5-(2,2,2-trifluoroethyl)-1,2,3,4,4a,5-hexahydrodipyrido[1,2-b:2′,1′-f][1,2,4]triazine-6,8-dione]
Second: CC1(c2cc(C(F)(F)F)ccn2)CCCC2N(CC3(C(F)(F)F)CC3)C(=O)c3c(O)c(=O)ccn3N21 (single isomer, unassigned) [Compound 52B, 7-hydroxy-1-methyl-5-((1-(trifluoromethyl)cyclopropyl)methyl)-1-(4-(trifluoromethyl)pyridin-2-yl)-1,2,3,4,4a,5-hexahydrodipyrido[1,2-b:2′,1′-f][1,2,4]triazine-6,8-dione]
The EC50 of the first is lower: 26.5 nM for the first, over 2700 nM for the second. The first is the more potent here.

Molecule `CN1C(=O)c2c(O)c(=O)ccn2N2C1CCCC2(C)c1cccc(OC(F)F)c1` (single isomer, unassigned) [Compound 51B, 1-(3-(difluoromethoxy)phenyl)-7-hydroxy-1,5-dimethyl-1,2,3,4,4a,5-hexahydrodipyrido[1,2-b:2′,1′-f][1,2,4]triazine-6,8-dione] has an EC50 of 16.3 nM.
